Experimental data as given in paper PMC10671052, “Naphthyl-Substituted Indole and Pyrrole Carboxylic Acids as Effective Antibiotic Potentiators—Inhibitors of Bacterial Cystathionine γ-Lyase” (International Journal of Molecular Sciences, 2023).
Converted amounts (≈) assume the structure as drawn. Like-named read-outs stand apart in the source and are kept apart here.

Assays:
[1] = system: S. aureus ATCC 25923; experiment: MIC of antibiotics alone and with potentiators, broth microdilution; settings: S. aureus ATCC 25923, no potentiator
Experimental: (§3) Overnight (ON) culture of a specific strain was grown in the liquid Luria–Bertani nutrient medium (LB broth, BD Difco) for 18 h at 37 °C, with agitation at 180 rpm using an Innova 44R orbital shaker (Eppendorf, Hamburg, Germany). After a certain period, 50 µL of the ON culture was transferred into 5 mL of the LB medium and grown for 3 h at 37 °C with agitation. Growth in the liquid medium was assessed by means of turbidity of the suspension, measured using a Densi-La-Meter II densitometer (Erba Lachema s.r.o., Brno, Czech Republic). Then, the bacterial suspension was diluted to the concentration 10^6 cells/mL with sterile LB and used as a seed culture [38, 39].
(§4) For the assessment of MICs, 96-well microtiter plates were utilized at 200 µL of a medium per well. Each well was filled with 100 µL of the seed culture. After that, 10 µL of a solution of each tested synthetic compound (potentiators) was added into each experimental well. Finally, 90 µL of twofold serial dilutions of an antibiotic in a sterile LB was added into individual wells.
(§5) As a positive control, we set up wells with 100 µL of the bacterial culture and 100 µL of the sterile LB medium. […] Negative-control wells contained 200 µL of the sterile medium. The plates were incubated in a thermostat for 18–20 h at 37 °C. The bacterial growth was assessed as optical density at 600 nm on a CLARIOstar microplate reader (BMG LABTECH GmbH, Ortenberg, Germany)).

[2] = system: S. aureus INA00761 (MRSA); experiment: as above; settings: no potentiator
Experimental: as §3, §4, §5

[3] = LogD7.4, miniaturized shake flask method; type: physicochemical; settings: 1-octanol / 100 mM sodium phosphate buffer, pH 7.4, 1-octanol / 100 mM sodium phosphate buffer pH 7.4; read-out: Measured logD7.4
Experimental: Coefficients of distribution between 1-octanol and 100 mM sodium phosphate buffer (pH 7.4) were determined by the miniaturized shake flask method. Namely, 5 μL of a 10 mM compound’s solution in DMSO was dissolved in 245 μL of 1-octanol saturated with phosphate buffer. Next, 500 μL of phosphate buffer saturated with 1-octanol was added, followed by mixing for 3 h. […] After that, 50 μL of the octanol phase (top layer) was aspirated and diluted with 500 μL of 1-octanol saturated with phosphate buffer. Then, the remaining octanol phase was removed; 50 μL of the buffer layer was aspirated and diluted with 500 μL of phosphate buffer saturated with 1-octanol. Both the octanol and phosphate buffer samples were analyzed by LC–MS/MS. The distribution coefficient was determined according to the following equation: logD7.4 = log10 (peak area for octanol sample/peak area for buffer sample). […] All compounds were tested in triplicate.

[4] = physchem; type: physicochemical; settings: for solubility at 2 h: 25 °C, pH 7.4, aqueous buffer, kinetic from dmso stock
Experimental: A stock solution of a compound (10 mM in DMSO, 10 μL) was added to 990 μL of 100 mM sodium phosphate buffer (pH 7.4) and incubated at 25 °C for 2 h with constant shaking. The suspension was filtered through the PVDF membrane filter (Merck Millipore, Burlington, MA, USA). To 320 µL of the filtrate, 80 µL of acetonitrile was added and mixed. The mixture was transferred to a vial and analyzed by ultra-high-performance liquid chromatography (UHPLC) with UV detection. Concentrations were calculated from a 5-point calibration curve. The calibration range was 1 to 100 μM. The controls were diclofenac and nicardipine. All compounds were tested in triplicate.

[5] = molecular target: S. aureus cystathionine-γ-lyase (bCSE) (Staphylococcus aureus, UniProt A0A0H3K724); experiment: IC50 assay: inhibition of H2S production by purified bCSE, WSP5 fluorescent probe; type: biochemical
Sequence of S. aureus cystathionine-γ-lyase (bCSE) (A0A0H3K724 entry or part of it): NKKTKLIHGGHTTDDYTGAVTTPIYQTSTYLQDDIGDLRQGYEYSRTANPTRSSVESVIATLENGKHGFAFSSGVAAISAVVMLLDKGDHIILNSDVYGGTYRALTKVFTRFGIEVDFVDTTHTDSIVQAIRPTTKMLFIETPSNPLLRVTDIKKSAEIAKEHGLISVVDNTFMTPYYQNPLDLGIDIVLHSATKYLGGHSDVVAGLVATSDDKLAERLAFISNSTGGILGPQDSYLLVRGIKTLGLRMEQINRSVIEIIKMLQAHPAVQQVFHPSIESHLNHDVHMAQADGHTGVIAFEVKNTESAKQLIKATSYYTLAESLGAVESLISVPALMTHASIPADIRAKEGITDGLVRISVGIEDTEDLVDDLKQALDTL
Experimental: (§1) Fluorescence spectrophotometry-based inhibitory activity toward purified bCSE and hCSE was measured in a 96-well nonbinding black plate (Greiner, Kremsmunster, Austria) at 100 μL of the reaction mixture per well. bCSE and hCSE (0.02 μM) were preincubated in a thermoshaker (Biosan, Riga, Latvia) (30 °C, 300 rpm) for 40 min in 50 mM sodium phosphate buffer (pH 8.0), supplemented with 10 μM pyridoxal 5′-phosphate (Sigma-Aldrich, St. Louis, MO, USA), 0.1% of Tween 20 (Sigma-Aldrich, St. Louis, MO, USA), and 1.2 μM Washington State Probe-5 (Cayman Chemical, Ann Arbor, MI, USA) (excitation: 500 nm, emission: 530 nm) at different concentrations of a tested inhibitor. The reaction was initiated by the addition of 100 μM L-cysteine (TCI, Chennai, Tamil Nadu, India) in 50 mM sodium phosphate buffer pH 8.0 to the reaction mixture, and the enzymatic activity was monitored for 12 h using a CLARIOstar Plus instrument (BMG LABTECH GmbH, Ortenberg, Germany). The 100 µM L-cysteine concentration used in the experiments corresponds to the maximal reported intracellular concentration in bacteria. The data were normalized to the positive and negative controls, and IC50 values were obtained by fitting to a four-parameter sigmoidal curve (inhibitor vs. response, variable slope model) in GraphPad Prism 8 software (GraphPad by Dotmatics, Boston, MA, USA). Each experiment was conducted with 2–3 technical replicates. IC50 values were means of at least two independent experiments.
(§2) For the production of S. aureus cystathionine-γ-lyase (bCSE) and of human cystathionine-γ-lyase (hCSE), plasmids pSUMO:saCSE (Addgene # 54336) and pNIC28-Bsa4 (Addgene # 42365) were employed. Cultivation of a competent E. coli cell strain (Thermo Fisher Scientific, Waltham, MA, USA), transformed with a target plasmid, was carried out on a selective solid medium with kanamycin. Bacterial cells harboring the plasmid vector were cultured at 37 °C and 180 rpm until OD600 = 0.65. Then, isopropyl β-D1-thiogalactopyranoside (IPTG) was added to a final concentration of 1 mM. To obtain bCSE, the cells were cultured for 3.5 h at 37 °C; to obtain hCSE, the cells were cultured for 18–20 h at 25 °C. After centrifugation, cells were resuspended in a buffer composed of 50 mM Tris–HCl, at a pH of 8.0, and 300 mM sodium chloride. After that, the cells were lysed by ultrasonication, with a pulse duration of 15 s and an interval between pulses of 15 s. The amplitude of the ultrasonic vibrations was 50% of the maximum. After lysis, samples were centrifuged for 15 min (20,000× g at 4 ℃). The pH of the supernatant obtained after the centrifugation was adjusted to 7.5 by the addition of a 1 M solution of Tris–OH. Then, the test sample was subjected to filtration through a polyethersulfone membrane with a pore diameter of 0.22 μm.

[6] = molecular target: T1, human cystathionine-γ-lyase (hCSE) (Homo sapiens, UniProt P32929); experiment: IC50 assay: inhibition of H2S production by purified hCSE, WSP5 fluorescent probe; type: biochemical
T1 construct: His6-TEV (N, cleaved yes); host or cells: E. coli
T1 sequence (P32929 whole entry): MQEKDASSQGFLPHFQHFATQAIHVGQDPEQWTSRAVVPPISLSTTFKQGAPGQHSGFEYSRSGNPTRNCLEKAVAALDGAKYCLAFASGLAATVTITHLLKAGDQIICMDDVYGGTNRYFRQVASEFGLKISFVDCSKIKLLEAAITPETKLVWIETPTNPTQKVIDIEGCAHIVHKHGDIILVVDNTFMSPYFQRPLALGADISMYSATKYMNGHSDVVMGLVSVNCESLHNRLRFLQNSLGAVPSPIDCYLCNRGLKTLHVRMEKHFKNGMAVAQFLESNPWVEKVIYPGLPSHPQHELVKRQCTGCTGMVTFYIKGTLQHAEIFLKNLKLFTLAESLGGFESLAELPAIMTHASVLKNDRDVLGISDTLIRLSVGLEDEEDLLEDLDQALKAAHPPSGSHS
Experimental: as §1, §2

[7] = system: HEK293 cells; experiment: HEK293 cytotoxicity assay (Alamar Blue); type: cell-based; settings: HEK293, 72 h
Experimental: The HEK 293 cell line was obtained from the European Collection of Authenticated Cell Cultures (ECACC, cat. # 85120602, Salisbury, UK). The cells were grown in a monolayer culture in Dulbecco’s Modified Eagle’s Medium (DMEM) (PanEco, Moscow, Russia), supplemented with 2 mM L-glutamine, 1% of a penicillin/streptomycin solution (Capricorn Scientific, Ebsdorfergrund, Germany), and 10% of heat inactivated fetal bovine serum (HyClone, Cytiva, Marlborough, MA, USA) in a humidified atmosphere containing 5% of CO2 at 37 °C (Binder, Germany). For the assay, HEK 293 cells were seeded in a 96-well plate (Corning, NY, USA) in 100 μL of the complete culture medium, at a final density of 2 × 10^3 cells/well, and were cultured for 24 h for proper attachment. Subsequently, the medium was removed, and the cells were exposed to a tested inhibitor at different concentrations for 72 h in 100 μL of the fresh complete culture medium. The sensitivity of the cells to the compounds was detected using the vital dye Alamar Blue (Invitrogen, San Diego, CA, USA). The Alamar Blue assay was performed according to the procedure described by O’Brien et al.. After incubation with the tested bCSE inhibitors, 10 μL of the Alamar Blue reagent was added into each well, the cell culture plates were returned to the humidified incubator, and the fluorescence was read after 3 h. The plates were exposed to an excitation light of 545 nm wavelength, and emission at 600 nm was measured on the CLARIOstar Plus (BMG LABTECH GmbH, Ortenberg, Germany). To determine half-maximal cytotoxic concentration (CC50), a four-parameter sigmoidal curve model (GraphPad Prism 8 software) was fitted to the measurement data.

[8] = Metabolic stability in rat liver microsomes; settings: for microsomal CLint at 1 µM / half-life at 1 µM: rat, microsomes; for microsomal CLint at 1 µM: pH 7.4, CLint; for half-life at 1 µM: pH 7.4, t1/2, rat liver microsomes
Experimental: The metabolic stability of a test compound was evaluated based on the rate of disappearance during incubation with rat liver microsomes. […] The natural logarithm of a peak area ratio (compound peak area/internal standard peak area) was plotted against incubation time, and the slope of the line was determined.

[9] = Caco-2 cell permeability; type: in vitro ADME; settings: human
Experimental: The culture medium consisted of high-glucose DMEM containing 10% of fetal bovine serum, 4 mM L-glutamine, 1% of a solution of nonessential amino acids (PanEco, Moscow, Russia), 100 U/mL penicillin, and 100 μg/mL streptomycin. The cells were maintained for 21 days at 37 °C and 5% CO2. The medium was refreshed every 3 days. A Lucifer yellow rejection assay was applied to determine cell monolayer integrity. […] The Lucifer yellow rejection value was calculated using the equation: LY % rejection = 100*(1−FIb/FIa), where FIb is the fluorescence in the basolateral compartment and FIa is the fluorescence in the apical compartment. […] Both apical-to-basolateral (AB) and basolateral-to-apical (BA) transport were assessed. For apical-to-basolateral transport, 0.3 mL of a test compound solution was added to the apical side, and 0.8 mL of HBSS with 0.5% of BSA was added to the basolateral side. For basolateral-to-apical transport, 0.8 mL of a test compound solution was added to the basolateral side and 0.3 mL of HBSS with 0.5% of BSA was added to the apical side. The Caco-2 cell monolayers were then incubated for 2 h at 37 °C. The pH values of the apical and basolateral compartments were 7.4. […] The supernatant was transferred to a vial and analyzed by liquid chromatography coupled with tandem MS (LC–MS/MS). The AB (or BA) apparent permeability coefficients (Papp, 10^–6 cm/s) were calculated according to the following formula [40, 41]: Papp = (V × ∆C)/(∆t × A × C0), where V is the volume of the receiver compartment (cm^3), C0 is the initial drug concentration in the donor compartment (μM), ∆C is the concentration in the receiver compartment (μM), ∆t is the incubation time (s), and A is the surface area of the cell monolayer (cm^2). An efflux ratio was calculated by dividing Papp (BA) by Papp (AB). All compounds were tested in duplicate.

[10] = in vitro; type: in vitro ADME; settings: human, plasma
Experimental: Plasma protein binding was assessed using RED device inserts with built-in cellulose acetate dialysis membranes (molecular weight cutoff: 8 kDa). The final concentration of the test compound in human plasma was 5 μM. The samples were prepared by placing 300 μL of human plasma into the plasma compartment of the RED device and 500 μL of phosphate-buffered saline (pH 7.4) into the buffer compartment. The RED device was fixed to a shaker, placed in a CO2 (5%) incubator, and incubated for 6 h at 37 °C. After an equilibration step, 100 μL aliquots were taken from each compartment; 100 μL of plasma was added to the buffer compartment aliquot and 100 μL of buffer was added to the plasma compartment aliquot. After mixing, 600 μL of acetonitrile containing an internal standard was added. […] All compounds were tested in duplicate. Fraction bound fb was determined via the following equation: fb (%) = [1 − (Cb/Cp)] × 100, where Cb is the concentration of an analyte in the buffer compartment (μM), and Cp is the concentration of the analyte in the plasma compartment (μM).

CCn1cc(C(=O)O)c(=O)c2cc(F)c(N3CCNCC3)cc21 [nor, norfloxacin]
MIC of antibiotic alone [1]: 2.5 µg/mL | MIC of antibiotic alone [2]: 10 µg/mL

CC(=O)Nc1ccc(O)cc1 [Paracetamol, reference compound]
logD [3]: 0.29 ± 0.02

CC1(C)S[C@@H]2[C@H](NC(=O)[C@H](N)c3ccccc3)C(=O)N2[C@H]1C(=O)O [amp, ampicillin]
MIC of antibiotic alone [1]: 0.3 µg/mL | MIC of antibiotic alone [2]: res | MIC of antibiotic alone ([2]; listed as ampicillin): resistant

NC[C@H]1O[C@H](O[C@H]2[C@H](O)[C@@H](O[C@H]3O[C@H](CO)[C@@H](O)[C@H](N)[C@H]3O)[C@H](N)C[C@@H]2N)[C@H](O)[C@@H](O)[C@@H]1O [km, kanamycin]
MIC of antibiotic alone [1]: 12.5 µg/mL | MIC of antibiotic alone [2]: res | MIC of antibiotic alone ([2]; listed as kanamycin): resistant

COC(=O)C1=C(C)NC(C)=C(C(=O)OCCN(C)Cc2ccccc2)C1c1cccc([N+](=O)[O-])c1 (centres unmarked) [Nicardipine]
solubility at 2 h [4]: 5.16 ± 0.23 µM (≈ 2.47 µg/mL) | Solubility ([4]; 2 h, pH 7.4): 5.2 µM (≈ 2.49 µg/mL)

O=C(O)c1ccc2ccn(Cc3cccc4ccccc34)c2c1 [Compound 4a]
IC50 ([5]; IC50 (uM), bCSE enzymatic IC50, rounded, repeated in Table S13): 138 µM | IC50 ([5]; IC50 (uM), bCSE enzymatic IC50, rounded, repeated in Table S14): 138 µM | IC50 ([5]; IC50 (uM), bCSE enzymatic IC50, rounded, repeated in Table S15): 138 µM | IC50 ([5]; IC50 biochemical assay bCSE, purified bCSE 0.02 μM, 100 μM L-cysteine, WSP5 probe, mean ± SD): 138 ± 9 µM | IC50 ([6]; purified hCSE 0.02 μM, 100 μM L-cysteine, WSP5 probe, mean ± SD; read-out: IC50 biochemical assay hCSE): > 500 µM | CC50 [7]: 392 ± 21.8 µM

O=C([O-])c1cn(Cc2cccc3ccccc23)c2ccccc12.[Na+] [Compound 1c]
activity toward bCSE (in words) [5]: did not show noticeable activity | activity toward hCSE (in words) [6]: did not show noticeable activity | IC50 ([6]; read-out: IC50 biochemical assay hCSE; purified hCSE 0.02 μM, 100 μM L-cysteine, WSP5 probe, mean ± SD): > 500 µM | CC50 [7]: 308 ± 75.5 µM

O=c1ccc2ccc(O)cc2o1 [Umbelliferone]
CLint ([8]; rat liver microsomes, cofactor NADPH, 1 µM): 8.8 µL/min/mg | microsomal CLint at 1 µM ([8]; rat liver microsomes, cofactor NADPH): 8.81 ± 1 µL/min/mg | microsomal CLint at 1 µM ([8]; rat liver microsomes, cofactor UDPGA): 180 ± 0.7 µL/min/mg | half-life at 1 µM ([8]; cofactor NADPH): 2.64 ± 0.301 h | half-life at 1 µM ([8]; cofactor UDPGA): 0.1283 ± 0.0005 h

CC(C)NCC(O)COc1cccc2ccccc12 (centres unmarked) [Propranolol, reference compound]
efflux ratio at 2 h, 10 μM ([9]; Caco-2, Papp (BA) / Papp (AB)): 1.04 | Papp A→B at 2 h, 10 μM ([9]; Caco-2, 10 μM, 2 h, pH 7.4): 30.2 ± 2.9 ×10⁻⁶ cm/s | Papp B→A at 2 h, 10 μM ([9]; Caco-2, 10 μM, 2 h, pH 7.4): 31.6 ± 1.1 ×10⁻⁶ cm/s | Fraction bound fb ([10]; 6 h, 5 μM, pH 7.4): 85.8% | fraction unbound at 6 h, 5 μM ([10]; pH 7.4, Fraction bound fb): 0.142

O=C(O)Cc1ccccc1Nc1c(Cl)cccc1Cl [Diclofenac sodium]
solubility at 2 h [4]: > 100 µM
